Laboratory results taken from patent US8809537B2, “N-ethyl-4-hydroxyl-1-methyl-5-(methyl(2,3,4,5,6-pentahydroxyhexyl)amino)-2-oxo-N-phenyl-1,2-dihydroquinoline-3-carboxamide” (Teva Pharmaceutical Industries, Ltd., priority 2012, dated 2014).

Tests used:
[1] = cited from earlier work
relapsing MS = conditions: Polman et al. 2005; cited from earlier work
[2] = system: acute experimental autoimmune encephalomyelitis (aEAE) model; conditions: U.S. Pat. No. 6,077,851; cited from earlier work
[3] = formation of MEG-LAQ in LAQ formulation containing meglumine (stability); format: physicochemical; conditions: meglumine used in LAQ formulation
Method: MEG-LAQ may form under certain conditions when meglumine is used in LAQ formulation. For example, MEG-LAQ is formed at 40° C. and 75% Relative Humidity (accelerated conditions). MEG-LAQ is also formed at room temperature at <0.1%.

Structure (SMILES): CCN(C(=O)c1c(O)c2c(Cl)cccc2n(C)c1=O)c1ccccc1 [Laquinimod sodium]
- oral bioavailability [1]: high oral bioavailability

Structure (SMILES): CCN(C(=O)c1c(O)c2c(Cl)cccc2n(C)c1=O)c1ccccc1 [Laquinimod, N-ethyl-N-phenyl-1,2-dihydro-4-hydroxy-5-chloro-1-methyl-2-oxoquinoline-3-carboxamide]
- development of active MRI lesions (relapsing MS): can reduce development of active MRI lesions
- effectiveness in the aEAE model [2]: effective

Structure (SMILES): CCN(C(=O)c1c(O)c2c(N(C)C[C@H](O)[C@@H](O)[C@H](O)[C@H](O)CO)cccc2n(C)c1=O)c1ccccc1 [MEG-LAQ, N-ethyl-4-hydroxyl-1-methyl-5-(methyl(2,3,4,5,6-pentahydroxyhexyl)amino)-2-oxo-N-phenyl-1,2-dihydroquinoline-3-carboxamide]
- MEG-LAQ formed in LAQ formulation ([3]; 40° C. and 75% Relative Humidity (accelerated conditions)): formed
- MEG-LAQ formed in LAQ formulation ([3]; room temperature): < 0.1%
